Data taken from ChEMBL document CHEMBL1145415, “Synthesis and antibacterial activity of novel fluoroquinolones containing substituted piperidines” (2007).
Values after ≈ are worked out from the molar mass of the structure shown.

Legend:
Assay type in all cases: functional
[1] = test system: Staphylococcus aureus; experiment: Antibacterial activity against methicillin-sensitive Staphylococcus aureus 04-4 after 18 to 24 hrs
[2] = test system: Streptococcus pneumoniae; experiment: Antibacterial activity against Streptococcus pneumoniae 05-9 after 18 to 24 hrs
[3] = test system: Escherichia coli; experiment: Antibacterial activity against Escherichia coli ATCC 25922 after 18 to 24 hrs
[4] = test system: Pseudomonas aeruginosa; experiment: Antibacterial activity against Pseudomonas aeruginosa […] after 18 to 24 hrs
[5] = test system: Enterococcus faecalis; experiment: Antibacterial activity against Enterococcus faecalis 03-4 after 18 to 24 hrs
[6] = test system: Klebsiella pneumoniae; experiment: Antibacterial activity against Klebsiella pneumoniae 05-4 after 18 to 24 hrs
[7] = test system: Staphylococcus aureus; experiment: Antibacterial activity against methicillin-resistant Staphylococcus aureus 05-3 after 18 to 24 hrs

## CO/N=C1\CCN(c2nc3c(cc2F)c(=O)c(C(=O)O)cn3C2CC2)CC1N (stereo not drawn)
[1]
  MIC: 4 µg/mL (≈ 10.3 µM)
[2]
  MIC: 4 µg/mL (≈ 10.3 µM)
[3]
  MIC: 8 µg/mL (≈ 20.5 µM)
[4]
  MIC: 4 µg/mL (≈ 10.3 µM)
[5]
  MIC: 8 µg/mL (≈ 20.5 µM)
[6]
  MIC: 2 µg/mL (≈ 5.14 µM)
[7]
  MIC: 16 µg/mL (≈ 41.1 µM)

## CCO/N=C1\CCN(c2nc3c(cc2F)c(=O)c(C(=O)O)cn3C2CC2)CC1NC (stereo not drawn)
[1]
  MIC: < 0.001 µg/mL
[2]
  MIC: < 0.001 µg/mL
[3]
  MIC: 8 µg/mL (≈ 19.2 µM)
[4]
  MIC: 1 µg/mL (≈ 2.4 µM)
[5]
  MIC: < 0.001 µg/mL
[6]
  MIC: 16 µg/mL (≈ 38.3 µM)
[7]
  MIC: 4 µg/mL (≈ 9.58 µM)

## CO/N=C1\CCN(c2nc3c(cc2F)c(=O)c(C(=O)O)cn3C2CC2)CC1NC1CC1 (stereo not drawn)
[1]
  MIC: 0.015 µg/mL (≈ 0.0349 µM)
[2]
  MIC: 0.004 µg/mL (≈ 0.00931 µM)
[3]
  MIC: 16 µg/mL (≈ 37.3 µM)
[4]
  MIC: 8 µg/mL (≈ 18.6 µM)
[5]
  MIC: 0.004 µg/mL (≈ 0.00931 µM)
[6]
  MIC: 16 µg/mL (≈ 37.3 µM)
[7]
  MIC: 2 µg/mL (≈ 4.66 µM)

## CCCO/N=C1\CCN(c2nc3c(cc2F)c(=O)c(C(=O)O)cn3C2CC2)CC1NC (stereo not drawn)
[1]
  MIC: 0.03 µg/mL (≈ 0.0695 µM)
[2]
  MIC: 0.015 µg/mL (≈ 0.0348 µM)
[3]
  MIC: 8 µg/mL (≈ 18.5 µM)
[4]
  MIC: 2 µg/mL (≈ 4.64 µM)
[5]
  MIC: 0.015 µg/mL (≈ 0.0348 µM)
[6]
  MIC: 8 µg/mL (≈ 18.5 µM)
[7]
  MIC: 16 µg/mL (≈ 37.1 µM)

## CO/N=C1\CN(c2nc3c(cc2F)c(=O)c(C(=O)O)cn3C2CC2)CC1CN (stereo not drawn) [GEMIFLOXACIN]
[1]
  MIC: 0.004 µg/mL (≈ 0.0103 µM)
[2]
  MIC: 0.004 µg/mL (≈ 0.0103 µM)
[3]
  MIC: 0.125 µg/mL (≈ 0.321 µM)
[4]
  MIC: 0.125 µg/mL (≈ 0.321 µM)
[5]
  MIC: 0.004 µg/mL (≈ 0.0103 µM)
[6]
  MIC: 0.125 µg/mL (≈ 0.321 µM)
[7]
  MIC: 0.004 µg/mL (≈ 0.0103 µM)

## CNC1CCN(c2nc3c(cc2F)c(=O)c(C(=O)O)cn3C2CC2)C/C1=N\OCc1ccccc1 (stereo not drawn)
[1]
  MIC: < 0.001 µg/mL
[2]
  MIC: < 0.001 µg/mL
[3]
  MIC: 8 µg/mL (≈ 16.7 µM)
[4]
  MIC: 0.5 µg/mL (≈ 1.04 µM)
[5]
  MIC: < 0.001 µg/mL
[6]
  MIC: 4 µg/mL (≈ 8.34 µM)
[7]
  MIC: 2 µg/mL (≈ 4.17 µM)

## CN(C)C1CN(c2nc3c(cc2F)c(=O)c(C(=O)O)cn3C2CC2)CC/C1=N\OCc1ccccc1 (stereo not drawn)
[1]
  MIC: 0.015 µg/mL (≈ 0.0304 µM)
[2]
  MIC: 0.015 µg/mL (≈ 0.0304 µM)
[3]
  MIC: 16 µg/mL (≈ 32.4 µM)
[4]
  MIC: 2 µg/mL (≈ 4.05 µM)
[5]
  MIC: 0.06 µg/mL (≈ 0.122 µM)
[6]
  MIC: 16 µg/mL (≈ 32.4 µM)
[7]
  MIC: 4 µg/mL (≈ 8.1 µM)

## CN[C@H](CC(C)C)C(=O)N[C@H]1C(=O)N[C@@H](CC(N)=O)C(=O)N[C@H]2C(=O)N[C@H]3C(=O)N[C@H](C(=O)N[C@H](C(=O)O)c4cc(O)cc(O)c4-c4cc3ccc4O)[C@H](O)c3ccc(c(Cl)c3)Oc3cc2cc(c3O[C@@H]2O[C@H](CO)[C@@H](O)[C@H](O)[C@H]2O[C@H]2C[C@](C)(N)[C@H](O)[C@H](C)O2)Oc2ccc(cc2Cl)[C@H]1O [VANCOMYCIN]
[2]
  MIC: 0.004 µg/mL (≈ 0.00276 µM)

## CCCO/N=C1\CN(c2nc3c(cc2F)c(=O)c(C(=O)O)cn3C2CC2)CCC1NC (stereo not drawn)
[1]
  MIC: 0.06 µg/mL (≈ 0.139 µM)
[2]
  MIC: 0.03 µg/mL (≈ 0.0695 µM)
[3]
  MIC: 4 µg/mL (≈ 9.27 µM)
[4]
  MIC: 0.06 µg/mL (≈ 0.139 µM)
[5]
  MIC: 0.06 µg/mL (≈ 0.139 µM)
[6]
  MIC: 4 µg/mL (≈ 9.27 µM)
[7]
  MIC: 2 µg/mL (≈ 4.64 µM)

## CO/N=C1\CN(c2nc3c(cc2F)c(=O)c(C(=O)O)cn3C2CC2)CCC1NC1CC1 (stereo not drawn)
[1]
  MIC: 0.015 µg/mL (≈ 0.0349 µM)
[2]
  MIC: 0.004 µg/mL (≈ 0.00931 µM)
[3]
  MIC: 16 µg/mL (≈ 37.3 µM)
[4]
  MIC: 1 µg/mL (≈ 2.33 µM)
[5]
  MIC: 0.004 µg/mL (≈ 0.00931 µM)
[6]
  MIC: 16 µg/mL (≈ 37.3 µM)
[7]
  MIC: 2 µg/mL (≈ 4.66 µM)

## CNC1CN(c2nc3c(cc2F)c(=O)c(C(=O)O)cn3C2CC2)CC/C1=N\OC (stereo not drawn)
[1]
  MIC: < 0.001 µg/mL
[2]
  MIC: < 0.001 µg/mL
[3]
  MIC: 4 µg/mL (≈ 9.92 µM)
[4]
  MIC: 1 µg/mL (≈ 2.48 µM)
[5]
  MIC: < 0.001 µg/mL
[6]
  MIC: 2 µg/mL (≈ 4.96 µM)
[7]
  MIC: 4 µg/mL (≈ 9.92 µM)

## CNC1CCN(c2nc3c(cc2F)c(=O)c(C(=O)O)cn3C2CC2)C/C1=N\OC (stereo not drawn)
[1]
  MIC: < 0.001 µg/mL
[2]
  MIC: < 0.001 µg/mL
[3]
  MIC: 1 µg/mL (≈ 2.48 µM)
[4]
  MIC: 0.06 µg/mL (≈ 0.149 µM)
[5]
  MIC: < 0.001 µg/mL
[6]
  MIC: 1 µg/mL (≈ 2.48 µM)
[7]
  MIC: 0.5 µg/mL (≈ 1.24 µM)

## CCO/N=C1\CN(c2nc3c(cc2F)c(=O)c(C(=O)O)cn3C2CC2)CCC1NC (stereo not drawn)
[1]
  MIC: < 0.001 µg/mL
[2]
  MIC: < 0.001 µg/mL
[3]
  MIC: 4 µg/mL (≈ 9.58 µM)
[4]
  MIC: 0.06 µg/mL (≈ 0.144 µM)
[5]
  MIC: < 0.001 µg/mL
[6]
  MIC: 1 µg/mL (≈ 2.4 µM)
[7]
  MIC: 2 µg/mL (≈ 4.79 µM)

## CNC1CN(c2nc3c(cc2F)c(=O)c(C(=O)O)cn3C2CC2)CC/C1=N\OCc1ccccc1 (stereo not drawn)
[1]
  MIC: 0.125 µg/mL (≈ 0.261 µM)
[2]
  MIC: 0.25 µg/mL (≈ 0.521 µM)
[3]
  MIC: 16 µg/mL (≈ 33.4 µM)
[4]
  MIC: 2 µg/mL (≈ 4.17 µM)
[5]
  MIC: 0.125 µg/mL (≈ 0.261 µM)
[6]
  MIC: 16 µg/mL (≈ 33.4 µM)
[7]
  MIC: 16 µg/mL (≈ 33.4 µM)

## CO/N=C1\CCN(c2nc3c(cc2F)c(=O)c(C(=O)O)cn3C2CC2)CC1N(C)C (stereo not drawn)
[1]
  MIC: 0.004 µg/mL (≈ 0.00958 µM)
[2]
  MIC: 0.015 µg/mL (≈ 0.0359 µM)
[3]
  MIC: 8 µg/mL (≈ 19.2 µM)
[4]
  MIC: 0.125 µg/mL (≈ 0.299 µM)
[5]
  MIC: 0.015 µg/mL (≈ 0.0359 µM)
[6]
  MIC: 1 µg/mL (≈ 2.4 µM)
[7]
  MIC: 1 µg/mL (≈ 2.4 µM)

## CCO/N=C1\CCN(c2nc3c(cc2F)c(=O)c(C(=O)O)cn3C2CC2)CC1N(C)C (stereo not drawn)
[1]
  MIC: 0.015 µg/mL (≈ 0.0348 µM)
[2]
  MIC: 0.002 µg/mL (≈ 0.00464 µM)
[3]
  MIC: 8 µg/mL (≈ 18.5 µM)
[4]
  MIC: 1 µg/mL (≈ 2.32 µM)
[5]
  MIC: 0.004 µg/mL (≈ 0.00927 µM)
[6]
  MIC: 2 µg/mL (≈ 4.64 µM)
[7]
  MIC: 1 µg/mL (≈ 2.32 µM)

## CCCO/N=C1\CCN(c2nc3c(cc2F)c(=O)c(C(=O)O)cn3C2CC2)CC1N(C)C (stereo not drawn)
[1]
  MIC: 0.5 µg/mL (≈ 1.12 µM)
[2]
  MIC: 0.125 µg/mL (≈ 0.281 µM)
[3]
  MIC: 16 µg/mL (≈ 35.9 µM)
[4]
  MIC: 2 µg/mL (≈ 4.49 µM)
[5]
  MIC: 0.25 µg/mL (≈ 0.561 µM)
[6]
  MIC: 16 µg/mL (≈ 35.9 µM)
[7]
  MIC: 2 µg/mL (≈ 4.49 µM)

## CO/N=C1\CN(c2nc3c(cc2F)c(=O)c(C(=O)O)cn3C2CC2)CCC1N (stereo not drawn)
[1]
  MIC: 2 µg/mL (≈ 5.14 µM)
[2]
  MIC: 2 µg/mL (≈ 5.14 µM)
[3]
  MIC: 1 µg/mL (≈ 2.57 µM)
[4]
  MIC: 1 µg/mL (≈ 2.57 µM)
[5]
  MIC: 2 µg/mL (≈ 5.14 µM)
[6]
  MIC: 1 µg/mL (≈ 2.57 µM)
[7]
  MIC: 4 µg/mL (≈ 10.3 µM)

## CC(=O)NC[C@H]1CN(c2ccc(N3CCOCC3)c(F)c2)C(=O)O1 [LINEZOLID]
[1]
  MIC: 0.5 µg/mL (≈ 1.48 µM)
[5]
  MIC: 0.125 µg/mL (≈ 0.371 µM)
[7]
  MIC: 1 µg/mL (≈ 2.96 µM)
